These molecules were tested on Bacillus coagulans, subspecies Hammer (ATCC-31284) (assay: Kirby-Bauer antibiotic susceptibility testing of Bacillus coagulans). Details: inhibition zone diameter (disk diffusion).
Assay type: cell-based
For `CC[C@H]1OC(=O)[C@H](C)[C@@H](O[C@H]2C[C@@](C)(OC)[C@@H](O)[C@H](C)O2)[C@H](C)[C@@H](O[C@@H]2O[C@H](C)C[C@H](N(C)C)[C@H]2O)[C@](C)(O)C[C@@H](C)C(=O)[C@H](C)[C@@H](O)[C@]1(C)O` [erythromycin], the “Susceptibility of Bacillus coagulans to the antibiotic, Kirby-Bauer testing” value (shortened to “Susceptibility … Kirby-Bauer testing”) was “Susceptible”.
For gentamicin, the “Susceptibility … Kirby-Bauer testing” value was “Susceptible”.
For `CN[C@H](CC(C)C)C(=O)N[C@H]1C(=O)N[C@@H](CC(N)=O)C(=O)N[C@H]2C(=O)N[C@H]3C(=O)N[C@H](C(=O)N[C@H](C(=O)O)c4cc(O)cc(O)c4-c4cc3ccc4O)[C@H](O)c3ccc(c(Cl)c3)Oc3cc2cc(c3O[C@@H]2O[C@H](CO)[C@@H](O)[C@H](O)[C@H]2O[C@H]2C[C@](C)(N)[C@H](O)[C@H](C)O2)Oc2ccc(cc2Cl)[C@H]1O` [vancomycin], the “Susceptibility … Kirby-Bauer testing” value was “Susceptible”.
For `Cc1onc(-c2ccccc2)c1C(=O)N[C@@H]1C(=O)N2[C@@H]1SC(C)(C)[C@@H]2C(=O)O` [oxacillin], the “Susceptibility … Kirby-Bauer testing” value was “Susceptible”.
`CC1(C)S[C@@H]2[C@H](NC(=O)[C@H](N)c3ccccc3)C(=O)N2[C@H]1C(=O)O` [ampicillin] was tested, and the “Susceptibility … Kirby-Bauer testing” value was “Susceptible”.
`O=C(O)c1cn(C2CC2)c2cc(N3CCNCC3)c(F)cc2c1=O` [ciprofloxacin] was tested, and the “Susceptibility … Kirby-Bauer testing” value was “Susceptible”.
trimethoprim-sulfamethoxazole was tested, and the “Susceptibility … Kirby-Bauer testing” value was “Susceptible”.
In the case of `CO[C@H]1/C=C/O[C@@]2(C)Oc3c(C)c(O)c4c(O)c(c(/C=N/N5CCN(C)CC5)c(O)c4c3C2=O)NC(=O)/C(C)=C\C=C\[C@H](C)[C@H](O)[C@@H](C)[C@@H](O)[C@@H](C)[C@H](OC(C)=O)[C@@H]1C` [rifampin], the “Susceptibility … Kirby-Bauer testing” value is reported as “Susceptible”.

These molecules were tested on Bacillus coagulans, subspecies Hammer (ATCC-31284) (assay: Vitek machine-based antibiotic susceptibility testing of Bacillus coagulans). Details: 500 μg/ml.
Assay type: cell-based
gentamicin was tested, and the “Susceptibility of Bacillus coagulans to the antibiotic, Vitek testing” value (“Susceptibility … Vitek testing” below) was “Susceptible”.

Same assay, conditions: 2,000 μg/ml
With `[H]/N=C(/N)N[C@H]1[C@H](O)[C@@H](O)[C@H](O[C@@H]2O[C@@H](C)[C@](O)(C=O)[C@H]2O[C@@H]2O[C@@H](CO)[C@H](O)[C@@H](O)[C@@H]2NC)[C@@H](N/C(N)=N\[H])[C@@H]1O` [streptomycin] the “Susceptibility … Vitek testing” value was “Susceptible”.

Same assay, conditions: optical density of culture
With `O=C(N[C@H](CO)[C@H](O)c1ccc([N+](=O)[O-])cc1)C(Cl)Cl` [chloramphenicol] the “Susceptibility … Vitek testing” value was “Susceptible”.
`CN[C@H](CC(C)C)C(=O)N[C@H]1C(=O)N[C@@H](CC(N)=O)C(=O)N[C@H]2C(=O)N[C@H]3C(=O)N[C@H](C(=O)N[C@H](C(=O)O)c4cc(O)cc(O)c4-c4cc3ccc4O)[C@H](O)c3ccc(c(Cl)c3)Oc3cc2cc(c3O[C@@H]2O[C@H](CO)[C@@H](O)[C@H](O)[C@H]2O[C@H]2C[C@](C)(N)[C@H](O)[C@H](C)O2)Oc2ccc(cc2Cl)[C@H]1O` [vancomycin] was tested, and the “Susceptibility … Vitek testing” value was “Susceptible”.
With `CCn1cc(C(=O)O)c(=O)c2cc(F)c(N3CCNCC3)cc21` [norfloxacin] the “Susceptibility … Vitek testing” value was “Susceptible”.
In the case of penicillin, the “Susceptibility … Vitek testing” value is reported as “Susceptible”.

Reference: patent publication US6849256B1, “Inhibition of pathogens by probiotic bacteria” (priority 1999, dated 2005)
